Source: ChEMBL document CHEMBL5034037, “Synthesis, Characterization, and Preclinical Evaluation of a Small-Molecule Prostate-Specific Membrane Antigen-Targeted Monomethyl Auristatin E Conjugate” (J Med Chem, 2021)
The source made the active and inactive calls. *1 amine or outer side, *2 acyl side, *3 side chain or, on linkers, in order; H or OH if unused. Where a SMILES comes first, the peptide text is derived from it. [ ]: non-standard residue; d: D form. The star is where a group is joined. GluureaLys(ε-3-ClBenzyl) = O=C(O)CC[C@H](NC(=O)N[C@@H](CCCCN(Cc1cccc(Cl)c1)*)C(=O)O)C(=O)O; Dolaproine = CO[C@@H]([C@@H]1CCCN1)[C@@H](C)C(=O)O; Dil = CC[C@H](C)[C@H](NC)[C@@H](CC(=O)O)OC; X1 = O=C(CCCc1cn(CCCN[*:1])nn1)[*:2]; PABC = O=C(OCc1ccc(N[*:1])cc1)[*:2]; X2 = C[C@@H](N*)[C@@H](O)c1ccccc1; Cit = NC(=O)NCCC[C@H](N)C(=O)O; Suc = O=C(CCC(=O)[*:2])[*:1]; NMeV = CN[C@H](C(=O)O)C(C)C; Ahx = NCCCCCC(=O)O

How the values were obtained:
[1] = Stability of compound at pH 5.6 assessed as recombinant cathepsin B mediated hydrolysis by measuring MMAE release by HPLC-MS analysis; type: physicochemical; conditions: buffer
Cytochrome P450 2B6 = target: T1, Cytochrome P450 2B6 (Homo sapiens, UniProt P20813); assay: Drug metabolism assessed as human liver microsome CYP2B6-mediatd metabolism; type: ADME; conditions: microsomes
T1 sequence (P20813 whole entry): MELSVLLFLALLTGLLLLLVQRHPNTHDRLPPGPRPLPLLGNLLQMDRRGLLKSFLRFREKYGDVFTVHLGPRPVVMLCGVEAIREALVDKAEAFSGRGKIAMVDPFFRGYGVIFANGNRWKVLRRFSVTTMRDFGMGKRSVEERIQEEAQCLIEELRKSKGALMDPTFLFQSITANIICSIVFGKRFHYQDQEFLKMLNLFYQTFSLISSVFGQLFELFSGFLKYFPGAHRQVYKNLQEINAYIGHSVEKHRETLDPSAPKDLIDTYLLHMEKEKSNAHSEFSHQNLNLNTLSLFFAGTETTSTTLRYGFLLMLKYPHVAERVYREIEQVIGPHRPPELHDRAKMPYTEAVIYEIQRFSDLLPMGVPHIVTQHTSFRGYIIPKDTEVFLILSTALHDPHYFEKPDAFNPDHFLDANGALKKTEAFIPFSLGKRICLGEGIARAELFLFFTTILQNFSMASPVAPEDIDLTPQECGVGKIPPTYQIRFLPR

[2] = Toxicity in rabbit assessed as morphological changes in spleen pulp at 81 to 122 microg/kg, iv; type: tissue-based, Oryctolagus cuniculus; conditions: in vivo, dose 81-122 µg/kg
[3] = Volume of distribution in Wistar rat at 1.5 mg/kg, iv; type: ADME, organism-based; conditions: in vivo
Salmonella typhimurium [4] = assay: Mutagenecity in Salmonella typhimurium TA100 in presence of metabolic activation system at 1 ug/ml by Ames test; type: toxicity, organism-based; conditions: salmonella enterica subsp. enterica serovar typhimurium; dose 1 µg/ml
[5] = Toxicity in rabbit assessed as morphological changes in brain sulcus at 81 to 122 microg/kg, iv; type: tissue-based, Oryctolagus cuniculus; conditions: in vivo, dose 81-122 µg/kg
Oryctolagus cuniculus = species on record: Oryctolagus cuniculus; assay: Induction of morphological change in heart of rabbit; type: organism-based; conditions: in vivo
[6] = Toxicity in rabbit assessed as morphological changes in pancreas at 81 to 122 microg/kg, iv; type: tissue-based, Oryctolagus cuniculus; conditions: in vivo, dose 81-122 µg/kg
[7] = Toxicity in rat assessed as morphological changes in capsule of the kidney at 150 to 225 microg/kg, iv; type: tissue-based; conditions: in vivo, dose 150-225 µg/kg
[8] = Chronic toxicity in rat assessed as reduced volume of urine at […], iv administered once every 3 weeks for 3 months; type: organism-based; conditions: in vivo, 504 h, dose lower 150 mg/kg
Salmonella typhimurium [9] = assay: Mutagenecity in Salmonella typhimurium TA97 without metabolic activation system at 1 ug/ml by Ames test; type: toxicity, organism-based; conditions: salmonella enterica subsp. enterica serovar typhimurium; dose 1 µg/ml
[10] = Toxicity in rabbit assessed as morphological changes in duodenum at 81 to 122 microg/kg, iv; type: tissue-based, Oryctolagus cuniculus; conditions: in vivo, dose 81-122 µg/kg
PC-3 [11] = assay: Cytotoxicity against human PC-3 cells not expressing PMSA measured using MTT assay; type: functional
[12] = Half life in Wistar rat at 1.5 mg/kg, iv; type: ADME, organism-based; conditions: in vivo
[13] = AUC (0 to t) in rabbit at 0.81 mg/kg, iv; type: ADME, organism-based, Oryctolagus cuniculus; design: dose 0.81 mg/kg; conditions: in vivo
[14] = Toxicity in rat assessed as morphological changes in abdominal cavity at 150 to 225 microg/kg, iv; conditions: in vivo, dose 150-225 µg/kg
[15] = Antitumor activity against human 22Rv1 cells xenografted in mouse assessed as tumour growth inhibition at 10 mg/kg,ip daily treated for 5 days after 18 days of tumor implantation measured upto 10 days; type: functional, CWR22R; conditions: 22Rv1, ip, 120 h, time 5 day, read-out: TGI
CWR22R = assay: Cytotoxicity against human 22Rv1 cells expressing PMSA measured using MTT assay; type: functional
[16] = Toxicity in rat assessed as morphological changes in tongue at 150 to 225 microg/kg, iv; type: tissue-based; conditions: in vivo, dose 150-225 µg/kg
[17] = Toxicity in rat assessed as morphological changes in brain gyrus at 150 to 225 microg/kg, iv; type: tissue-based; conditions: in vivo, dose 150-225 µg/kg
[18] = Toxicity in rat assessed as morphological changes in brain sulcus at 150 to 225 microg/kg, iv; type: tissue-based; conditions: in vivo, dose 150-225 µg/kg
[19] = Volume of distribution in rabbit at 0.81 mg/kg, iv; type: ADME, organism-based, Oryctolagus cuniculus; conditions: in vivo
[20] = Toxicity in rat assessed as morphological changes in mucosae of mouth at 150 to 225 microg/kg, iv; type: tissue-based; conditions: in vivo, dose 150-225 µg/kg
[21] = Toxicity in rabbit assessed as morphological changes in lungs at 81 to 122 microg/kg, iv; design: species or system Oryctolagus cuniculus; conditions: in vivo, dose 81-122 µg/kg
Cytochrome P450 2C9 = Cytochrome P450 2C9 (Homo sapiens, UniProt P11712); assay: Drug metabolism assessed as human liver microsome CYP2C9-mediatd metabolism; type: ADME; conditions: microsomes
[22] = Toxicity in rabbit assessed as traumatic vein injury at 81 to 122 microg/kg, iv; type: tissue-based, Oryctolagus cuniculus; conditions: in vivo, dose 81-122 µg/kg
[23] = Acute toxicity in iv dosed ICR mouse assessed as maximum tolerated dose; type: organism-based; conditions: in vivo, read-out: MNTD
Salmonella typhimurium [24] = assay: Mutagenecity in Salmonella typhimurium TA100 in presence of metabolic activation system at 10000 ug/ml by Ames test; type: toxicity, organism-based; conditions: salmonella enterica subsp. enterica serovar typhimurium; dose 10000 µg/ml
Cytochrome P450 3A4 = Cytochrome P450 3A4 (Homo sapiens, UniProt P08684); assay: Drug metabolism assessed as human liver microsome CYP3A4-mediatd metabolism; type: ADME; conditions: microsomes
[25] = Toxicity in rat assessed as morphological changes in cerebrum at 150 to 225 microg/kg, iv; type: tissue-based; conditions: in vivo, dose 150-225 µg/kg
[26] = Toxicity in rabbit assessed as local irritation in testes at 81 to 122 microg/kg, iv; design: species or system Oryctolagus cuniculus; conditions: in vivo, dose 81-122 µg/kg
[27] = Toxicity in rabbit assessed as morphological changes in testes at 81 to 122 microg/kg, iv; design: species or system Oryctolagus cuniculus; conditions: in vivo, dose 81-122 µg/kg
Salmonella typhimurium [28] = assay: Mutagenecity in Salmonella typhimurium TA98 in presence of metabolic activation system at 10000 ug/ml by Ames test; type: toxicity, organism-based; conditions: salmonella enterica subsp. enterica serovar typhimurium; dose 10000 µg/ml
[29] = Toxicity in rabbit assessed as morphological changes in kidney at 81 to 122 microg/kg, iv; type: tissue-based, Oryctolagus cuniculus; conditions: in vivo, dose 81-122 µg/kg
[30] = Toxicity in rat assessed as morphological changes in heart muscle at 150 to 225 microg/kg, iv; type: tissue-based; conditions: in vivo, dose 150-225 µg/kg
[31] = Toxicity in rabbit assessed as morphological changes in capsule of the kidney at 81 to 122 microg/kg, iv; type: tissue-based, Oryctolagus cuniculus; conditions: in vivo, dose 81-122 µg/kg
[32] = Toxicity in rat assessed as morphological changes in mucosa of thyroid gland at 150 to 225 microg/kg, iv; type: tissue-based; conditions: in vivo, dose 150-225 µg/kg
PC-3 [33] = assay: Induction morphological changes in human PC-3 cells assessed as decrease in cell membrane stiffness measured immediately after MMAE addition; type: functional, cell-based; conditions: time hrs <=1
Salmonella typhimurium [34] = assay: Mutagenecity in Salmonella typhimurium TA98 without metabolic activation system at 100 ug/ml by Ames test; type: toxicity, organism-based; conditions: salmonella enterica subsp. enterica serovar typhimurium; dose 100 µg/ml
Salmonella typhimurium [35] = assay: Mutagenecity in Salmonella typhimurium TA98 without metabolic activation system at 1 ug/ml by Ames test; type: toxicity, organism-based; conditions: salmonella enterica subsp. enterica serovar typhimurium; dose 1 µg/ml
[36] = Toxicity in rat assessed as morphological changes in thymus at 150 to 225 microg/kg, iv; type: tissue-based; conditions: in vivo, dose 150-225 µg/kg
[37] = Toxicity in rabbit assessed as morphological changes in adrenal gland at 81 to 122 microg/kg, iv; type: tissue-based, Oryctolagus cuniculus; conditions: in vivo, dose 81-122 µg/kg

Sequence of Cytochrome P450 2C9 (P11712 whole entry): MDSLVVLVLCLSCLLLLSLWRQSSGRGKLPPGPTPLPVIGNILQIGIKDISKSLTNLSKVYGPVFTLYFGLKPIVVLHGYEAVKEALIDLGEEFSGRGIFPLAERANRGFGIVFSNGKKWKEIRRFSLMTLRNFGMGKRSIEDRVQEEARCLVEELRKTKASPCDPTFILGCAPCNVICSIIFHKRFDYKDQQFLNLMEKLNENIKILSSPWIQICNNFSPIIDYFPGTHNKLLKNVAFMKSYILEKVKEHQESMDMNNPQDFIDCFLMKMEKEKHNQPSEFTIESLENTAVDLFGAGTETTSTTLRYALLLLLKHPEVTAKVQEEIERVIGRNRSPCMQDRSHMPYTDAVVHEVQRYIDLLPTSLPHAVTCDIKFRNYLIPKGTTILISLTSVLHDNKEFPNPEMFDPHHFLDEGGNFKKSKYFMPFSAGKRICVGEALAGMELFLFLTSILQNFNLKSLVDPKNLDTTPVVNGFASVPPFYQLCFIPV
Sequence of Cytochrome P450 3A4 (P08684 whole entry): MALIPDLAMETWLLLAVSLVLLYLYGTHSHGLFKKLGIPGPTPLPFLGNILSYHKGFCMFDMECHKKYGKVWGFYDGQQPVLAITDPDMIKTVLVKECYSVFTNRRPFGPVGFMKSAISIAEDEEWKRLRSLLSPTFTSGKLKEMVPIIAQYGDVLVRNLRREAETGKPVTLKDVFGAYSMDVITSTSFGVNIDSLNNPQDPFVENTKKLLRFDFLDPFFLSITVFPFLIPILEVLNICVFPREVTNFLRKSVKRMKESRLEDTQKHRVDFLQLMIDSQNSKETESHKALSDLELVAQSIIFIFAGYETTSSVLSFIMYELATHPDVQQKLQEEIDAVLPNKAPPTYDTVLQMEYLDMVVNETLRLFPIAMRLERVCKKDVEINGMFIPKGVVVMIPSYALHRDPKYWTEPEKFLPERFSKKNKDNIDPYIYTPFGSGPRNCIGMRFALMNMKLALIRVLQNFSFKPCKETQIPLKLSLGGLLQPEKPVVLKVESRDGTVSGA

CC[C@H](C)[C@@H]([C@@H](CC(=O)N1CCC[C@H]1[C@H](OC)[C@@H](C)C(=O)N[C@H](C)[C@@H](O)c1ccccc1)OC)N(C)C(=O)[C@@H](NC(=O)[C@H](C(C)C)N(C)C(=O)OCc1ccc(NC(=O)[C@H](CCCNC(N)=O)NC(=O)[C@@H](NC(=O)CCCc2cn(CCCNC(=O)[C@H](Cc3ccc(O)cc3)NC(=O)[C@H](Cc3ccccc3)NC(=O)CCC(=O)NCCCCCC(=O)N(CCCC[C@H](NC(=O)N[C@@H](CCC(=O)O)C(=O)O)C(=O)O)Cc3cccc(Cl)c3)nn2)C(C)C)cc1)C(C)C ({GluureaLys(ε-3-ClBenzyl)-Ahx-Suc}-FY[X1]V[Cit][PABC][NMeV]V[Dil][Dolaproine]-X2)
31000 ng·h/mL: AUC(0-t) [13]
Non-Toxic: Activity [2] | Activity (Salmonella typhimurium [4]) | Activity [5] | Activity (Oryctolagus cuniculus) | Activity [6] | Activity [7] | Activity (Salmonella typhimurium [9]) | Activity [10] | Activity [14] | Activity [16] | Activity [17] | Activity [18] | Activity [20] | Activity [21] | Activity (Salmonella typhimurium [24]) | Activity [25] | Activity [26] | Activity [27] | Activity (Salmonella typhimurium [28]) | Activity [29] | Activity [30] | Activity [31] | Activity [32] | Activity (Salmonella typhimurium [34]) | Activity (Salmonella typhimurium [35]) | Activity [36] | Activity [37]
Metabolite_Notdetected: Drug metabolism (Cytochrome P450 2B6) | Drug metabolism (Cytochrome P450 2C9) | Drug metabolism (Cytochrome P450 3A4)
27 nM: CC50 (PC-3 [11])
4.7 h: half-life [12]
Toxic: Activity [8] | Activity [22]
0.158 L/kg: Vd [19]
3 mg/kg: MTD [23]
29 nM: CC50 (CWR22R)
Unstable: Stability [1]
84%: inhibition in vivo at 10 mg/kg [15]
inactive: Activity (PC-3 [33])
0.126 L/kg: Vd [3]
